We go through 42 compounds from patent publication US9745310B2 (SK BIOPHARMACEUTICALS CO., LTD., priority 2015, dated 2017).

human mGluR5 receptor, sequence (P41594 21-1212): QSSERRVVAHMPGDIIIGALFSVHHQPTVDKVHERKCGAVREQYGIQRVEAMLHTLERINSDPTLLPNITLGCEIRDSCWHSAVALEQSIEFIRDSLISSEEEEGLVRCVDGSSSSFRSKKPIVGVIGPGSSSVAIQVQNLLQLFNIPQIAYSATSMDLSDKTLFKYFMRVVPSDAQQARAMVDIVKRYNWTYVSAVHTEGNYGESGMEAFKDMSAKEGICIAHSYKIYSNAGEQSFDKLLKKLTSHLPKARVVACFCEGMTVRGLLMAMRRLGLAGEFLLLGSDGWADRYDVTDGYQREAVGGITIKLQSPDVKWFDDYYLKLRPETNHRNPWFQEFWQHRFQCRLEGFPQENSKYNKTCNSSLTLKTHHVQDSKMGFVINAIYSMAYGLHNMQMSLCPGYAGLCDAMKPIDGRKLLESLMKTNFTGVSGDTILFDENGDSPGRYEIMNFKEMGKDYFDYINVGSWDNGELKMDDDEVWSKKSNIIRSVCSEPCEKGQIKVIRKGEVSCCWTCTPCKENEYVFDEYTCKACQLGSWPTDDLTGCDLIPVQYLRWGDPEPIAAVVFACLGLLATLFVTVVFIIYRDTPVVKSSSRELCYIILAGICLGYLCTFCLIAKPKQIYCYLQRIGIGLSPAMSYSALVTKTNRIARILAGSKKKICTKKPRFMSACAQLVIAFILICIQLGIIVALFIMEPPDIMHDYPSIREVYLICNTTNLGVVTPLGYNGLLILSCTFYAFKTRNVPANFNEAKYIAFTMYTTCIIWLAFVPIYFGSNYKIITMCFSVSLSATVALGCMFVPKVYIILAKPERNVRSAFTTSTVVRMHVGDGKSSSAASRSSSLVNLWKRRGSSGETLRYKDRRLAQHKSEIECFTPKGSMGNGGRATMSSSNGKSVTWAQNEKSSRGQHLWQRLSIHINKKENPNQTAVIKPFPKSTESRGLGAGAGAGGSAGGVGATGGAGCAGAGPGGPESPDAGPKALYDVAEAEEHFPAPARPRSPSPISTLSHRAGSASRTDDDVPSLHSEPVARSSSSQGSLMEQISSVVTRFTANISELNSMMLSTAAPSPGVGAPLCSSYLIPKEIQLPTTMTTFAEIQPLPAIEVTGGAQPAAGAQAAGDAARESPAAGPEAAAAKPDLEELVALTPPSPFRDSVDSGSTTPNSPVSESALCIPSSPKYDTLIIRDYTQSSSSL

This experiment deals with human mGluR5 receptor (Homo sapiens (Human), UniProt P41594). Kind of experiment: Calcium influx assay based on fluorescence (mGluR5 PAM activity). Particulars: human mGluR5 receptor-overexpressed HEK293 cell line; L-glutamate EC20; Fluo-4, FLIPR. A digest of the protocol:
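HEK293 cells overexpressing human mGluR5, loaded 1 h with Fluo-4 at 37° C. Compounds (10 μM to 10 nM final, 0.1–0.2% DMSO) added with an EC20 concentration of L-glutamate, and Ca2+ response read by FLIPR at room temperature. Activity scaled as 0% for EC20 glutamate alone and 100% for glutamate maximum.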
Take `Fc1ccc(-c2cnc3nc(COc4cncc(F)c4)cn3c2)cc1` [Example 171, 6-(4-fluorophenyl)-2-[(5-fluoro-3-pyridyl)oxymethyl)imidazo[1,2-a]pyrimidine]: the concentration giving a half-maximal response (EC50) (as a rule, the concentration at which the effect is half-maximal) was 0.1 to 0.5 µM.

As for `CC(C)c1ccccc1-c1cnc2nc(COc3ccccn3)cn2c1` [Example 143, 6-(2-isopropylphenyl)-2-(2-pyridyloxymethyl)imidazo[1,2-a]pyrimidine], the EC50 lay within 0.5 to 1 µM.

With `Fc1ccc(OCc2cn3cc(-c4cnc(F)c(F)c4)cnc3n2)cc1` [Example 83, 6-(5,6-difluoro-3-pyridyl)-2-[(4-fluorophenoxy)methyl]imidazo[1,2-a]pyrimidine], the EC50 was in the range of 0.1 to 0.5 µM.

In the case of `Fc1cccc(-c2cnc3nc(COc4ccccc4)cn3c2)c1F` [Example 7, 6-(2,3-difluorophenyl)-2-phenoxymethylimidazo[1,2-a]pyrimidine], the concentration for a half-maximal effect (EC50) is 0.1 to 0.5 µM.

On to `Cc1ccc(N)cc1-c1cnc2nc(COc3ccccc3)cn2c1` [Example 11, 6-(3-amino-6-methylphenyl)-2-phenoxymethylimidazo[1,2-a]pyrimidine], for which the EC50 was in the range of 0.1 to 0.5 µM.

In the case of `COc1cc(C#N)ccc1-c1cnc2nc(COc3cccc(F)c3)cn2c1` [Example 95, 4-[2-[(3-fluorophenoxy)methyl]imidazo[1,2-a]pyrimidin-6-yl]-3-methoxy-benzonitrile], the EC50 lay in the range of 0.1 to 0.5 µM.

Regarding `Oc1ccc(OCc2cn3cc(-c4ccc(F)cc4)cnc3n2)cc1` [Example 52, 4-[[6-(4-fluorophenyl)imidazo[1,2-a]pyrimidin-2-yl]methoxy]phenol], the EC50 lay within 0.1 to 0.5 µM.

`Nc1cc(F)c(F)cc1-c1cnc2nc(COc3ccc(F)cc3)cn2c1` [Example 73, 4,5-difluoro-2-[2-[(4-fluorophenoxy)methyl]imidazo[1,2-a]pyrimidin-6-yl]aniline]: the EC50 lay in the range of 0.5 to 1 µM.

For `COc1c(F)cccc1-c1cnc2nc(COc3ccccn3)cn2c1` [Example 112, 6-(3-fluoro-2-methoxy-phenyl)-2-(2-pyridyloxymethyl)imidazo[1,2-a]pyrimidine], the concentration giving a half-maximal response (EC50) fell in the range of 0.1 to 0.5 µM.

Consider `CSc1cc(F)ccc1-c1cnc2nc(COc3ccc(F)cc3)cn2c1` [Example 98, 6-(4-fluoro-2-methylsulfanyl-phenyl)-2-[(4-fluorophenoxy)methyl]imidazo[1,2-a]pyrimidine], for which the half-maximal effective concentration (EC50) is 0.1 to 0.5 µM.

With `Fc1ccc(-c2cnc3nc(COc4ccnc(F)c4)cn3c2)c(C(F)(F)F)c1` [Example 174, 2-[(2-fluoro-4-pyridyl)oxymethyl]-6-[4-fluoro-2-(trifluoromethyl)phenyl]imidazo[1,2-a]pyrimidine], the EC50 fell in the range of 0.1 to 0.5 µM.

Turning to `CN(C)c1ccccc1-c1cnc2nc(COc3ccccc3)cn2c1` [Example 14, 6-(2-dimethylaminophenyl)-2-phenoxymethylimidazo[1,2-a]pyrimidine], the concentration giving a half-maximal response (EC50) was in the range of 0.1 to 0.5 µM.

Turning to `COc1cc(F)ccc1-c1cnc2nc(COc3ccncc3)cn2c1` [Example 151, 6-(4-fluoro-2-methoxyphenyl)-2-(pyridin-4-yloxymethyl)imidazo[1,2-a]pyrimidine], the concentration for a half-maximal effect (EC50) was in the range of 0.1 to 0.5 µM.

Turning to `Fc1cc(OCc2cn3cc(-c4cccc(F)c4F)cnc3n2)ccn1` [Example 165, 6-(2,3-difluorophenyl)-2-(2-fluoropyridin-4-yloxymethyl)imidazo[1,2-a]pyrimidine], the concentration for a half-maximal effect (EC50) was in the range of 0.1 to 0.5 µM.

Take `Cc1ccccc1-c1cnc2nc(COc3ccnc(F)c3)cn2n1` [Example 185, 2-(2-methylphenyl)-6-((2-fluoropyridin-4-yloxy)methyl)imidazo[1,2-b][1,2,4]triazine]: the concentration giving a half-maximal response (EC50) fell in the range of 0.1 to 0.5 µM.

For `COc1cc(F)ccc1-c1cnc2nc(COc3cc(F)ccn3)cn2c1` [Example 118, 6-(4-fluoro-2-methoxy-phenyl)-2-[(4-fluoro-2-pyridyl)oxymethyl)imidazo[1,2-a]pyrimidine], the EC50 lay within 0.1 to 0.5 µM.

As for `O=Cc1ccc(-c2cnc3nc(COc4ccccn4)cn3c2)c(C(F)(F)F)c1` [Example 144, 4-[2-(2-pyridyloxymethyl)imidazo[1,2-a]pyrimidin-6-yl]-3-(trifluoromethyl)benzaldehyde], the EC50 lay in the range of 0.5 to 1 µM.

Consider `Fc1ccc(-c2cnc3nc(COc4ccnc(Cl)c4)cn3c2)cc1` [Example 172, 2-[(2-chloro-4-pyridyl)oxymethyl]-6-(4-fluorophenyl)imidazo[1,2-a]pyrimidine], for which the concentration giving a half-maximal response (EC50) was 0.1 to 0.5 µM.

`Nc1cccc(-c2cnc3nc(COc4ccccc4)cn3c2)c1` [Example 9, 6-(3-aminophenyl)-2-phenoxymethylimidazo[1,2-a]pyrimidine]: the concentration giving a half-maximal response (EC50) was 0.5 to 1 µM.

Consider `c1ccc(OCc2cn3cc(-c4ccccc4)cnc3n2)cc1` [Example 2, 2-phenoxymethyl-6-phenylimidazo[1,2-a]pyrimidine], for which the concentration for a half-maximal effect (EC50) lay within 0.1 to 0.5 µM.

`OCc1cc(F)ccc1-c1cnc2nc(COc3ccccn3)cn2c1` [Example 135, [5-fluoro-2-[2-(2-pyridyloxymethyl)imidazo[1,2-a]pyrimidin-6-yl]phenyl]methanol]: the EC50 was in the range of 0.1 to 0.5 µM.

With `Fc1ccc(OCc2cn3cc(-c4ccc(F)cc4)cnc3n2)cc1` [Example 53, 2-[(4-fluorophenoxy)methyl]-6-(4-fluorophenyl)imidazo[1,2-a]pyrimidine], the half-maximal effective concentration (EC50) lay in the range of 0.1 to 0.5 µM.

Consider `Oc1cc(F)ccc1-c1cnc2nc(COc3ccc(F)cc3)cn2c1` [Example 58, 5-fluoro-2-[2-[(4-fluorophenoxy)methyl]imidazo[1,2-a]pyrimidin-6-yl]phenol], for which the EC50 was in the range of 0.1 to 0.5 µM.

Regarding `Cc1ccccc1-c1cnc2nc(COc3cncc(F)c3)cn2c1` [Example 153, 6-(2-methylphenyl)-2-(5-fluoro-pyridin-3-yloxymethyl)imidazo[1,2-a]pyrimidine], the EC50 fell in the range of 0.1 to 0.5 µM.

Consider `Cc1cc(F)ccc1-c1cnc2nc(COc3ccc(F)nc3)cn2c1` [Example 158, 6-(4-fluoro-2-methylphenyl)-2-(6-fluoropyridin-3-yloxymethyl)imidazo[1,2-a]pyrimidine], for which the 50% effective concentration (EC50) lay within 0.1 to 0.5 µM.

Consider `COc1cc(F)ccc1-c1cnc2nc(COc3ccnc(F)c3)cn2c1` [Example 163, 6-(4-fluoro-2-methoxyphenyl)-2-(2-fluoropyridin-4-yloxymethyl)imidazo[1,2-a]pyrimidine], for which the concentration for a half-maximal effect (EC50) fell in the range of 0.1 to 0.5 µM.

Take `COc1cc(Cl)ccc1-c1cnc2nc(COc3ccccc3)cn2c1` [Example 22, 6-(4-chloro-2-methoxyphenyl)-2-phenoxymethylimidazo[1,2-a]pyrimidine]: the half-maximal effective concentration (EC50) fell in the range of 0.5 to 1 µM.

With `COc1cc(F)ccc1-c1cnc2nc(COc3cccnc3)cn2c1` [Example 147, 6-(4-fluoro-2-methoxyphenyl)-2-(pyridin-3-yloxymethyl)imidazo[1,2-a]pyrimidine], the EC50 fell in the range of 0.5 to 1 µM.

Turning to `Clc1ccc(-c2cnc3nc(COc4ccccc4)cn3c2)cc1` [Example 37, 6-(4-chlorophenyl)-2-phenoxymethylimidazo[1,2-a]pyrimidine], the EC50 was in the range of 0.5 to 1 µM.

Regarding `Fc1ccc(-c2cnc3nc(COc4ccccc4)cn3c2)c2c1OCO2` [Example 24, 6-(7-fluorobenzo[1,3]dioxol-4-yl)-2-phenoxymethylimidazo[1,2-a]pyrimidine], the EC50 fell in the range of 0.1 to 0.5 µM.

With `Fc1ccc(OCc2cn3cc(-c4ccc(C(F)(F)F)nc4)cnc3n2)nc1` [Example 131, 2-[(5-fluoro-2-pyridyl)oxymethyl]-6-[6-(trifluoromethyl)-3-pyridyl]imidazo[1,2-a]pyrimidine], the EC50 fell in the range of 0.1 to 0.5 µM.

For `Fc1ccc(-c2cnc3nc(COc4ccccc4)cn3c2)c(C(F)(F)F)c1` [Example 18, 6-(4-fluoro-2-trifluoromethylphenyl)-2-phenoxymethylimidazo[1,2-a]pyrimidine], the concentration giving a half-maximal response (EC50) lay within 0.1 to 0.5 µM.

Regarding `Fc1cncc(OCc2cn3cc(-c4ccc(F)cc4C(F)(F)F)cnc3n2)c1` [Example 173, 2-[(5-fluoro-3-pyridyl)oxymethyl]-6-[4-fluoro-2-(trifluoromethyl)phenyl]imidazo[1,2-a]pyrimidine], the EC50 is 0.5 to 1 µM.

For `COc1cncc(-c2cnc3nc(COc4ccc(F)cc4)cn3c2)c1` [Example 89, 2-[(4-fluorophenoxy)methyl]-6-(5-methoxy-3-pyridyl)imidazo[1,2-a]pyrimidine], the EC50 is 0.5 to 1 µM.

As for `Cc1c(F)cccc1-c1cnc2nc(COc3ccc(F)cn3)cn2c1` [Example 124, 6-(3-fluoro-2-methyl-phenyl)-2-[(5-fluoro-2-pyridyl)oxymethyl)imidazo[1,2-a]pyrimidine], the concentration giving a half-maximal response (EC50) lay within 0.1 to 0.5 µM.

In the case of `Oc1cccc(-c2cnc3nc(COc4ccccc4)cn3c2)c1` [Example 17, 6-(3-hydroxyphenyl)-2-phenoxymethylimidazo[1,2-a]pyrimidine], the 50% effective concentration (EC50) fell in the range of 0.5 to 1 µM.

Turning to `Oc1cc(F)ccc1-c1cnc2nc(COc3ccnc(F)c3)cn2c1` [Example 167, 6-(4-fluoro-2-hydroxyphenyl)-2-(2-fluoropyridin-4-yloxymethyl)imidazo[1,2-a]pyrimidine], the EC50 lay within 0.1 to 0.5 µM.

As to `COc1cc(-c2cnc3nc(COc4ccccc4)cn3c2)c(F)cc1F` [Example 28, 6-(2,4-difluoro-5-methoxyphenyl)-2-phenoxymethylimidazo[1,2-a]pyrimidine], the EC50 was 0.5 to 1 µM.

As for `Fc1cc(OCc2cn3cc(-c4ccccc4F)cnc3n2)ccn1` [Example 166, 6-(2-fluorophenyl)-2-(2-fluoropyridin-4-yloxymethyl)imidazo[1,2-a]pyrimidine], the 50% effective concentration (EC50) was in the range of 0.1 to 0.5 µM.

As for `Cc1ccc(-c2cnc3nc(COc4ccc(F)cc4)cn3c2)cc1N` [Example 72, 5-[2-[(4-fluorophenoxy)methyl]imidazo[1,2-a]pyrimidin-6-yl]-2-methyl-aniline], the half-maximal effective concentration (EC50) lay in the range of 0.1 to 0.5 µM.

`Fc1ccc(OCc2cn3cc(-c4ccc(F)cc4CCl)cnc3n2)cc1` [Example 197, 6-[2-(chloromethyl)-4-fluoro-phenyl]-2-[(4-fluorophenoxy)methyl)imidazo[1,2-a]pyrimidine]: the half-maximal effective concentration (EC50) lay within 0.1 to 0.5 µM.

For `NC(=O)OCc1cc(F)ccc1-c1cnc2nc(COc3ccccc3)cn2c1` [Example 194, [5-fluoro-2-[2-(phenoxymethyl)imidazo[1,2-a]pyrimidin-6-yl]phenyl]methyl carbamate], the EC50 is 0.1 to 0.5 µM.
